# ChEMBL document CHEMBL3507680, “University of Dundee, Gates Library screen for HepG2 cell viability”
# Assay: Human HepG2 cell viability assay in 384 well format
# Type: toxicity, cell-based
# Set-up: dose 125 nL, time 70.5 hour; concentration not given beside the values
# Settings: HepG2 cells, read-out: Inhibition
row,SMILES,cytotoxicity at 70.5 h [%]
1,COc1cccc2c3c(c(=O)[nH]c12)CCC(C)(C)O3,-5.31
2,NS(=O)(=O)c1cccnc1Nc1c(Cl)cccc1Cl,14
3,O=c1ncn(-c2ccc(F)cc2)c2ncccc12,-6.86
4,Cn1c(=O)c2c(n3ncnc13)NC(=O)CC2c1cccc(F)c1 (stereo not drawn),-11.8
5,Cc1ccc2c(c1)Oc1ncccc1C(=O)N2,-0.446
6,Cc1ccc(N2CC[C@@H]3[C@@H](CO[C@H]3CNC(=O)c3ccco3)C2)nn1,-1.79
7,Cc1cc(C(=O)N2CCC3(CC2)C(=O)NCCN3CC(C)C)c(C)o1,-2.92
8,Cc1[nH]/c(=N/C(=O)Cn2nc(N3CCOCC3)ccc2=O)sc1C,-6.43
9,CCOC(=O)N1CCN(C(=O)c2snnc2-c2ccccc2)CC1,-9.63
10,Cc1ccc(Cn2c(=O)[nH]c3cccnc3c2=O)cc1,-8.02
11,CCN1CCc2c(sc3c2C(=O)NC(/C=C\c2ccccc2)N3)C1 (stereo not drawn),16.4
12,Cn1c(=O)c2sccc2n(CC(=O)Nc2cccc(Cl)c2)c1=O,8.96
13,CC(C)c1cccc(NC(=O)Cn2c(=O)n(C)c(=O)c3sccc32)c1,5.39
14,Nc1ncccc1C(=O)NCc1cccc(Br)c1,13.7
15,Cc1cccc(CNC(=O)c2cccnc2N)c1,18
16,NC1CCN(c2nccn3c(=O)[nH]nc23)CC1,22.8
17,COc1ccc(-c2ccnc3nc(N4CCCCC4)[nH]c(=O)c23)cc1,-9.32
18,O=c1[nH]c(N2CCCCC2)nc2nccc(-c3ccc4c(c3)OCO4)c12,-12.9
19,COc1ccc(-c2ccnc3nc(N4CCCC4)[nH]c(=O)c23)cc1OC,-9.78
20,COc1cccc(-c2ccnc3nc(N4CCCCC4)[nH]c(=O)c23)c1,17.7
21,O=C(CC1Cn2ncnc2NC1=O)Nc1ccccc1 (stereo not drawn),-8.16
22,CCOCCCNC(=O)CN(c1ccc(C)c(C)c1)S(C)(=O)=O,-9.65
23,CC(C)NC(=O)c1ccc2c(c1)nc1n2CCN(Cc2ccccc2)C1,-12.9

row,SMILES,cytotoxicity at 70.5 h [%]
1,O=C1CSC(c2ccncc2)c2c[nH]nc2N1 (stereo not drawn),-8.06
2,O=C1CSC(c2ccc3c(c2)OCO3)c2cn[nH]c2N1 (stereo not drawn),-4
3,CCOc1ccc(C2SCC(=O)Nc3c2c(=O)[nH]n3C(C)C)cc1 (stereo not drawn),-11.8
4,CCOCCCNC(=O)CN(c1ccc(F)c(F)c1)S(C)(=O)=O,-12.9
5,CN1CCc2c(sc3c2C(=O)NC(/C=C/c2ccccc2)N3)C1 (stereo not drawn),-11.3
6,CCOC(=O)c1ccc(NC(=O)c2c(O)nc3c(c2O)CCCC3)cc1,-10.8
7,CC(C)n1[nH]c(=O)c2c1NC(=O)CSC2c1ccc(OCC(N)=O)cc1 (stereo not drawn),-11.1
8,CC(C)COc1ccc(C2SCC(=O)Nc3c2c(=O)[nH]n3C(C)C)cc1 (stereo not drawn),-4.59
9,O=C(Cn1nc2c(cc1=O)CCCC2)NC(Cc1ccccc1)C(=O)O (stereo not drawn),-10.7
10,Cc1cccc(NC(=O)Cc2cnc3n(C)c(=O)[nH]c(=O)n23)c1,22.4
11,Cn1c(=O)[nH]c(=O)n2c(CC(=O)Nc3ccccc3)cnc12,-15.7
12,COCCNC(=O)C1CCCN(c2ccc3nncn3n2)C1 (stereo not drawn),9.49
13,CCOC(=O)Cn1c(=O)nc2n1C(=O)N(c1ccccc1)C2,8.85
14,COC(=O)Cn1c(=O)nc2n1C(=O)N(c1cccc(C)c1)C2,-7.13
15,COC(=O)Cn1c(=O)nc2n1C(=O)N(c1ccc(F)cc1)C2,-12.5
16,CN1CCN(C(=O)Cn2ccc3c(Cl)cccc32)CC1,-12.2
17,Cc1cnc(NC(=O)c2csc(NCC(C)C)n2)s1,9.3
18,CC(C)n1[nH]c(=O)c2c1NC(=O)CC2c1cccc2cccnc12 (stereo not drawn),15.8
19,CC(C)n1[nH]c(=O)c2c1NC(=O)CC2c1ccncc1 (stereo not drawn),-11.3
20,CC(C)n1[nH]c(=O)c2c1NC(=O)CC2c1ccc(C#N)cc1 (stereo not drawn),18.7
21,CSc1ccc(C2CC(=O)Nc3c2c(=O)[nH]n3C(C)C)cc1 (stereo not drawn),-9.28
22,COc1cccc(C2CC(=O)Nc3c2cnn3C(C)(C)C)c1 (stereo not drawn),-6.1
23,CC(C)(C)n1ncc2c1NC(=O)CC2c1ccc(C(=O)O)cc1 (stereo not drawn),-13.3

row,SMILES,cytotoxicity at 70.5 h [%]
1,CC(C)(C)n1ncc2c1NC(=O)CC2c1ccc(C#N)cc1 (stereo not drawn),-10
2,CC(C)CNC(=O)CSC1CCc2ccccc2NC1=O (stereo not drawn),-15.8
3,CC(C)NC(=O)C(C)NC(=O)N1CCN(c2ccc(Cl)cc2)CC1 (stereo not drawn),19
4,O=C1CC(c2cccs2)c2sc(C(=O)O)c(-c3ccccc3)c2N1 (stereo not drawn),-9.97
5,O=C(NCc1ccc(Cl)cc1)C1CCCN(c2ccc3nncn3n2)C1 (stereo not drawn),-9.54
6,COC(=O)Cn1c(=O)nc2n1C(=O)N(c1ccc(Br)cc1)C2,10.9
7,Cc1[nH]/c(=N\C(=O)c2csc(NC3CCCC3)n2)sc1C,31.2
8,Cc1cs/c(=N/C(=O)c2csc(NCC(C)C)n2)[nH]1,-4.1
9,CC(C)(C)n1ncc2c1NC(=O)CC2c1c(F)cccc1F (stereo not drawn),-14.5
10,COc1cccc2c3c(c(=O)[nH]c12)CCO3,3.58
11,COc1cccc2c3c(c(=O)n(C)c12)CCC(C)(C)O3,-10.4
12,COc1cc(OCC(=O)NCCc2ccccc2)cc(OC)c1OC,-5.97
13,O=c1[nH]cnc2[nH]c(N3CCNCC3)nc12,-2.26
14,Cc1ccccc1-n1c(O)cc(C)c(C#N)c1=O,-1.83
15,Cc1ccc(-n2c(O)cc(C)c(C#N)c2=O)c(C)c1,-1.45
16,CCN(CC)S(=O)(=O)c1cnccc1N1CCN(C(C)C)CC1,7.88
17,CCCNS(=O)(=O)c1cnccc1N1CCN(C(C)C)CC1,7.02
18,Cn1cc(I)c(C(=O)NC2CCCCC2)n1,28.2
19,CCn1cc(C(=O)Nc2cc(C(=O)OC)ccc2C(=O)OC)cn1,-9
20,CCn1cc(C(=O)Nc2cc(C)ccc2C)cn1,17
21,O=c1c2cn[nH]c2nc(SCCN2CCCC2)n1-c1ccccc1,-6.58
22,CC(=O)c1c(C)nn(S(=O)(=O)c2ccc(C)cc2)c1C,0.514
23,CCCOC1Sc2nnc(C)n2N=C1c1ccccc1 (stereo not drawn),-9.6

row,SMILES,cytotoxicity at 70.5 h [%]
1,CCn1c(O)c(C(C)=O)c2cc(C)ccc21,-6.19
2,CC(=O)c1c(O)n(C)c2ccc(F)cc12,-4.46
3,CCc1nn(-c2cc(Oc3cccc(C)c3)nc(C)n2)c(N)c1C#N,-8.17
4,CCOC(=O)c1cnn(-c2cc(Oc3cc(C)ccc3C)ncn2)c1N,-0.831
5,O=C(Cn1ccnc1)N1CC[C@H](Oc2cccc(F)c2)[C@@H](O)CC1,13
6,Cc1nccn1[C@@H]1CC[C@@H](N(C)S(=O)(=O)c2ccccc2F)[C@H]1O,-3.2
7,COCC(=O)N1CCC(c2c(C(=O)N(C)C)sc3ncccc23)C1 (stereo not drawn),27.1
8,CO[C@@H]1CC[C@@H](NC(=O)CCc2ccc(Cl)cc2)[C@H]1O,-7.81
9,CC(=O)N1CCCC1(C(=O)N1CCCC1)c1cnccn1 (stereo not drawn),0.591
10,COc1ccccc1CN1CCC(c2nccc(C)n2)C1 (stereo not drawn),27.1
11,Cc1ncoc1C(=O)N1CCCC(c2ccc3c(N)nn(C)c3n2)C1 (stereo not drawn),-4.28
12,CN1CCC(Cc2cnc(CNC(=O)Cc3cccc(F)c3)cn2)CC1,-2.96
13,Cc1occc1C(=O)N1CCCC(C2=Nc3ccccc3S(=O)(=O)N2)C1 (stereo not drawn),-5.45
14,Cn1cnc(S(=O)(=O)N2CCCC2c2ccnc3nccn23)c1 (stereo not drawn),0.418
15,O=C(c1cccc(-n2cnnc2)c1)N1C[C@@H](O)[C@H](N2CCOCC2)C1,-1.32
16,O=C(C1CC1)N1CCCC(C2=Nc3ccccc3S(=O)(=O)N2)C1 (stereo not drawn),-4.52
17,CC(C)c1cc(C(=O)NCCc2nc(-c3ccncc3)n[nH]2)[nH]n1,-5.69
18,O=C(Cc1ccccc1F)N1CCC[C@@H]1Cn1c(=O)oc2ccccc21,6.08
19,CN(CCc1ccccc1)Cc1c(C2CC2)[nH]c2ncccc12,2.38
20,CC(=O)N1CCC(Cc2cccc(-c3ccnn3C)n2)CC1,-8.71
21,O=C(CCn1ccnc1)N1CCC(c2nnc(-c3ccccn3)o2)CC1,-3.21
22,Cc1cc(C)nc(N2CCCC(C)(c3[nH]ncc3C(=O)N(C)C)C2)n1 (stereo not drawn),-4.44
23,COCCNc1ccc(CC2CCCN(C3CCCC3)C2)nn1 (stereo not drawn),-4.76

row,SMILES,cytotoxicity at 70.5 h [%]
1,CC(C)(C)C(=O)N1CCC(c2cnc(-c3cn[nH]c3)cn2)CC1,-4.2
2,CS(=O)(=O)N1CCN(C(=O)c2cncs2)CC(C(N)=O)C1 (stereo not drawn),-5.12
3,CN(C(=O)c1ccc(C#N)cc1)c1nnc(C2CCOC2)s1 (stereo not drawn),-6.28
4,COc1cccc([C@@]2(O)CC[C@@H]3CN(C(=O)c4ccn(C)n4)C[C@@H]32)c1,-6.49
5,Cc1nn(C)c(C)c1-c1ccc(=O)n(C(C)C(=O)NC2CCCCC2)n1 (stereo not drawn),-17.2
6,Cc1cc(-c2cnc(N3CCN(C)CC3)nc2C(C)C)on1,-3.07
7,Cc1cc(-c2cnc(N3CCC(O)CC3)nc2C(C)C)on1,20.4
8,Cc1cc(-c2cnc(N3CCC(C(N)=O)CC3)nc2C(C)C)on1,9.37
9,Cc1cc(O)n2nc(C3CCN(C(=O)c4ccccn4)CC3)cc2n1,18.6
10,CCc1cc(O)n2nc(C3CCN(C(=O)c4cccnc4)CC3)cc2n1,21.2
11,CCc1nc(-c2cncnc2C2CCNC2)no1 (stereo not drawn),18
12,CCC(CN1CCCC1)n1cncc1-c1cnn(-c2ccc(F)cc2)c1 (stereo not drawn),-5.95
13,CCC(CN1CCCC1)n1cncc1-c1cnn(Cc2ccccc2)c1 (stereo not drawn),-4.48
14,CC(=O)Nc1ccc(Oc2cc(C)nc(C3CCNCC3)c2)cc1,-15.5
15,CC(Cn1cncc1-c1cnn(Cc2ccccc2)c1)N1CCCCC1 (stereo not drawn),-1.65
16,Cc1[nH]c2c(C)cccc2c1CC(=O)N(C)CCN(C)C,-8.69
17,Cn1cc(CN2CCOC(c3cccc(-c4cncnc4)n3)C2)cn1 (stereo not drawn),-5.7
18,Cn1nccc1CN1CCOC(c2cccc(-c3cncnc3)n2)C1 (stereo not drawn),14.3
19,Cc1ncc(C(=O)N2CCOC(C(=O)N3CCCCCC3)C2)c(C)n1 (stereo not drawn),1.17
20,NCc1ccccc1Sc1ccc(O)cc1,-8.8
21,CC(N)Cc1ccccc1Sc1ccc(O)cc1 (stereo not drawn),-7.28
